Assay results published in ChEMBL document CHEMBL5725778, “Condensed ring derivative, and preparation method, intermediate, pharmaceutical composition and use thereof” (2018).

Target: T1, Solute carrier family 22 member 12 (Homo sapiens, UniProt Q96S37)
T1 sequence (Q96S37 whole entry): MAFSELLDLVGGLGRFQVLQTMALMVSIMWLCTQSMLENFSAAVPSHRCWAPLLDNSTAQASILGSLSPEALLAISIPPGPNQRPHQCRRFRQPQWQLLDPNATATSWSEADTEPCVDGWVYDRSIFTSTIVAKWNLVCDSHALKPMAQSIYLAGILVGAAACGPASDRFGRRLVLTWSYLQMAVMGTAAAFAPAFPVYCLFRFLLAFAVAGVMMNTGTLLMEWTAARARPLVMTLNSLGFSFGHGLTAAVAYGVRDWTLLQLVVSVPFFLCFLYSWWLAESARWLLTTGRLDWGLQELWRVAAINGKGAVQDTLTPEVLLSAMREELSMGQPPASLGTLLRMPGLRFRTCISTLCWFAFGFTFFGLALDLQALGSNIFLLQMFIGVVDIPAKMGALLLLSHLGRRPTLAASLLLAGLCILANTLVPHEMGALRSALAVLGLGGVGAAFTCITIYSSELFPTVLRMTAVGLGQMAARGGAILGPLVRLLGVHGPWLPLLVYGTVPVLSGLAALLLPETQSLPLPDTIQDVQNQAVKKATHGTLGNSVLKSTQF
Assay: hURAT1 Inhibition Assay: Human embryonic kidney cells (HEK293) was incubated in DMEM tissue culture medium, at 37° C., under 5% CO2 and 95% air atmosphere. TransIT-293 transfection agent (MIRUS BIO, Cat. No. MIR2706) and model URAT1 were used to construct transfected HEK293 cells. Transfected HEK293/hURAT1 cells were used to the test for 14C-uric acid transport activity. HEK293/hURAT1 cells were seeded in a 96-well plate (BD, Cat. No. 356461) fully coating with poly-D-lysine at a density of 6×10^4 cells per well. Cells were incubated at 37° C. for at least 12 hrs in the calorstat, and then washed with pre-heated washing buffer (125 mM sodium gluconate, 10 mM HEPES pH=7.4) at an amount of 200 μL per well to wash out the culture medium. The uric acid [8-14C] (ARC, Cat. No. ARC0513-250UCI) containing or not containing the compound was added to 50 μL HBSS buffer which was free of chloric ion each well (HBSS buffer: 125 mM sodium gluconate, 4.8 mM potassium gluconate, 1.3 mM calcium gluconate, 1.2 mM potassium dihydrogen phosphate, 1.2 mM magnesium sulfate, 5.6 mM glucose, 25 mM HEPES pH=7.4) to make the specific concentration of the uric acid 1 μCi per well. The incubating solution was removed after 10 mins incubation, followed by adding 100 μL cold washing buffer, after washing with this buffer for 3 times, the buffer was completely removed from the well.

In the case of C[C@H](CC(=O)O)c1cc2c(-c3ccc(C#N)c4ccccc34)cncc2s1, the IC50 is reported as 11 nM.

For C[C@H](CC(=O)O)c1cc2cncc(-c3ccc(C#N)c4ccccc34)c2s1, the IC50 was 580 nM.

C[C@@H](CC(=O)O)c1cc2cncc(-c3ccc(C#N)c4ccccc34)c2s1 was tested, and the IC50 was 10 nM.

Molecule CC(C)(Sc1ccc2cncc(-c3ccc(C#N)c4ccccc34)c2c1)C(=O)O has an IC50 of 8 nM.

Work on C[C@@H](CC(=O)O)c1cc2c(-c3ccc(C#N)c4ccccc34)cncc2s1 yielded an IC50 of 37 nM.

Work on C[C@@H](Oc1ccc2cncc(-c3ccc(C#N)cc3)c2c1)C(=O)O yielded an IC50 of 5520 nM.

Molecule C[C@@H](CC(=O)O)c1cc2cncc(-c3ccc(C#N)cc3)c2s1 has an IC50 of 1860 nM.

Molecule C[C@H](Oc1ccc2cncc(-c3ccc(C#N)cc3)c2c1)C(=O)O has an IC50 of 2690 nM.

In the case of C[C@H](CC(=O)O)c1cc2cncc(-c3ccc(C#N)cc3)c2s1, the IC50 is reported as 38 nM.
